Consider two molecules from patent US20250179022A1, “COMPOUND USED AS TYK2 INHIBITOR, PREPARATION METHOD THEREFOR, AND PHARMACEUTICAL USE THEREOF” (SHANGHAI ZHIGEN PHARMACEUTICAL & TECHNOLOGY CO. LTD., priority 2022, published 2025).

≈ marks a conversion by molar mass, not a printed value.

Data set [1] has as its target T1, JAK2 (Homo sapiens, UniProt O60674, cells depend on it, form not given).
T1 construct: fused on or other part: N-terminal part of TEL (ETV6) as oligomerising partner; it is the second protein of the fusion and part of the key; P41212 (Transcription factor ETV6)
The experiment in a line: JAK family kinase selectivity assay, Ba/F3-TEL-JAK2 cell proliferation. Type of data set: cell-based. To be noted: Ba/F3-TEL-JAK2, 72 h; read-out: Ba/F3 Cell IC50 JAK2. From the text: (§1) There are four kinases in the JAK family, respectively TYK2, JAK1, JAK2 and JAK3. JAK family kinase genes were introduced into the wild-type murine B lymphocytes (BaF3), and four BaF3 engineered cell lines were constructed respectively (Ba/F3-FL-TYK2-E957D, Ba/F3-TEL-JAK1, Ba/F3-TEL-JAK2, Ba/F3-TEL-JAK3). The growth and proliferation of these engineered cell lines were not dependent on IL-3, but on exogenously transferred JAK family kinases.
In this experiment, the inhibitory effects of the compounds on the proliferation of four cell types, Ba/F3-FL-TYK2-E957D, Ba/F3-TEL-JAK1, Ba/F3-TEL-JAK2, and Ba/F3-TEL-JAK3 were tested, and apoptosis was detected, and the IC50 values were calculated. The inhibitory activities of the compounds against TYK2, JAK1, JAK2, and JAK3 kinases were evaluated based on the IC50 value, thus assessing the JAK family kinase selectivity of the compounds.
(§2) The tested compounds, powder and stored at room temperature, were prepared into 10 mM stock solution with DMSO and stored at −20° C. away from light for use.
Compounds were formulated into dilute solutions which was 1000 times of the final concentration. The compound was prepared into 20-times of final concentration by diluting the compound with culture medium. 2 ul of 1000-times compound was added per well to 98 ul of culture medium.
Cells (provided by Sundia Pharmaceutical Technology (Shanghai) Co., Ltd.) were resuspended and counted using an automated cell counter. The cell suspension was diluted to the desired density based on BaF3 seeding density of 2000 cells per well. Each well was plated with 95 ul of cells and incubated at 37° C. for stable equilibrium. […]
(§3) The cell plate was equilibrated to room temperature. […] Detected with SpectraMax Paradigm.
(§4) • (1) IC50 was calculated using GraphPad Prism 5. • (2) % Inh=(Max signal-Compound signal)/(Max signal-Min signal)×100. • (3) Max signal was the positive control well with only the same volume of DMSO as the compound. • (4) Min signal was the negative control well with only the culture medium.

The nature of data set [2]: Solubility in water (at pH=7). Type of data set: physicochemical. From the text: Test Example 6: Solubility of the Compounds of the Invention in Water (at pH=7)
Data set [3] concerns IFN-α-induced STAT phosphorylation. The experiment in a line: IFN-α-induced STAT phosphorylation in human whole blood. Type of data set: cell-based. To be noted: for higher anti-inflammatory activity compared to the control BMS-986165: IFN-α-induced STAT phosphorylation in human whole blood, relative to BMS-986165; for IC50: human whole blood, 20 ng/ml IFN-α, pSTAT5 in CD3-positive cells, read-out: IC50, IFN-α inflammatory pathway (IFN-α-induced STAT phosphorylation). From the text:
The cytokine receptor attached to TYK2 mediates the signaling of type 1 interferon (IFN-α), which has been identified as the most important inflammatory factor of the autoimmune system. Human whole blood is induced with IFN-α, and TYK2 from lymphocytes in whole blood triggered STAT phosphorylation, which mediated subsequent inflammatory signaling. Therefore, TYK2 inhibitors have an inhibitory effect on IFN-α signaling, and the stronger the TYK2 inhibitory activity, the lower the level of STAT phosphorylation, and the stronger the corresponding anti-inflammatory effect.
In this experiment, the ability of the compounds to inhibit IFN-α-induced STAT phosphorylation in human whole blood were tested, and the IC50 values were calculated. The anti-inflammatory activity of the compounds was evaluated at the tissue level and evaluation of the inhibitory activity of compounds on the IFN-α inflammatory pathway based on the IC50 value.
The tested compound, powder and stored at room temperature, prepared into 10 mM stock solution with DMSO and stored at −80° C. in the refrigerator.
1× Fix/Lysis solution preparation: 5× Fix/Lysis and ddH2O were diluted according to 1:4 and preheated in 37° C. incubator, waiting for use.
Flow cytometric staining buffer preparation: 1 g of bovine serum albumin (BSA) and 1 mL of EDTA (0.5 M) solution were added to 500 mL of phosphate buffer solution (PBS) and stored at 4° C. in the refrigerator.
Compound dilution solution: 0.5 g of bovine serum albumin (BSA) was added to 500 mL of phosphate buffer solution (PBS), and stored at 4° C. in the refrigerator.
50 μg/mL IFN-alpha was diluted to 400 ng/mL with Compound Diluent and set aside.
67.5 μL of human whole blood was added to a 96-well plate using a 300 μL electric volley gun. 3.5 μL of prepared test compound was added, mixed well and placed in the cell culture incubator. After 60 min incubation, 400 ng/mL IFN-α (Biolegend 592702, final concentration 20 ng/ml) was added. The obtained was mixed well and placed in the cell culture incubator to continue incubation for 15 min.
After cytokine stimulation, 5 ul of PE-CD3 (BD 555333) antibody was added to each well, mixed and incubation was continued at 4° C. in the refrigerator. At the end, whole blood was transferred to a 96-well deep-well plate using a volley gun, pre-warmed 1× Fix/Lysis solution was added, and cells were lysed and fixed for 12 minutes at 37° C. in an incubator. After being washed, 400 μL of Perm III solution was added, vortexed and incubated on ice for 30 minutes. Cells were then stained by 100 μL of APC-pSTAT5 (1:100) antibody for 50 min at room temperature. This was followed by flow-through instrumentation. The expression of pSTAT5 was quantified by median fluorescence intensity after gating the CD3-positive signaling cluster.

In data set [4] the target is T2, TYK2 (Homo sapiens, UniProt P29597, E957D).
T2 construct: host or cells: Ba/F3 (murine B lymphocytes)
The experiment in a line: TYK2 kinase activity inhibition assay (Ba/F3-FL-TYK2-E957D cell proliferation, CellTiter-Glo). The note with it: 72 h. Type of data set: cell-based. Here is the method:
The TYK2 kinase gene was introduced into wild-type murine-derived B lymphocytes (BaF3) to construct the Ba/F3-FL-TYK2-E957D stable cell line.
In this experiment, the inhibitory effect of the compounds on the proliferation of Ba/F3-FL-TYK2-E957D cells were tested, apoptosis was detected, and the IC50 value was calculated. The inhibitory activity of the compounds against TYK2 kinase was evaluated based on the IC50 value.
as §2
Compounds were prepared into dilute solutions which was 1000 times of the final concentration. The compound was prepared into 20-times of the final concentration by diluting the compound with culture medium. 2 ul of 1000-times compound was added to per well to 98 ul of culture medium.
Cells (provided by Sundia Pharmaceutical Technology (Shanghai) Co., Ltd.) were resuspended and counted using an automated cell counter. The cell suspension was diluted to the desired density based on BaF3 seeding density of 2000 cells per well. Each well was plated with 95 ul of cells and incubated at 37° C. for stable equilibrium. 5 ul of 20-times compound was added to each well, with the wells to which the same volume of DMSO was added as a control.
The cell plate was equilibrated to room temperature. 40 ul CellTiter-Glo® Reagent was added to each well, shaken for 2 minutes and allowed to stand for 10 minutes. Detected with SpectraMax Paradigm.
• (1) IC50 was calculated using GraphPad Prism 5. • (2) % Inh=(Max signal−Compound signal)/(Max signal−Min signal)×100. • (3) Max signal was the positive control well with only the same volume of DMSO as the compound. • (4) Min signal was the negative control well with only the culture medium.

In data set [5] the target is T2, TYK2. The experiment in a line: JAK family kinase selectivity assay, Ba/F3-FL-TYK2-E957D cell proliferation. Type of data set: cell-based. To be noted: 72 h.
Text: as §1
In this experiment, the inhibitory effects of the compounds on the proliferation of four cell types, Ba/F3-FL-TYK2-E957D, Ba/F3-TEL-JAK1, Ba/F3-TEL-JAK2, and Ba/F3-TEL-JAK3 were tested, and apoptosis was detected, and the IC50 values were calculated. The inhibitory activities of the compounds against TYK2, JAK1, JAK2, and JAK3 kinases were evaluated based on the IC50 value, thus assessing the JAK family kinase selectivity of the compounds. […]
Cells (provided by Sundia Pharmaceutical Technology (Shanghai) Co., Ltd.) were resuspended and counted using an automated cell counter. […]
as §3, §4

T2 sequence (P29597 whole entry E957D): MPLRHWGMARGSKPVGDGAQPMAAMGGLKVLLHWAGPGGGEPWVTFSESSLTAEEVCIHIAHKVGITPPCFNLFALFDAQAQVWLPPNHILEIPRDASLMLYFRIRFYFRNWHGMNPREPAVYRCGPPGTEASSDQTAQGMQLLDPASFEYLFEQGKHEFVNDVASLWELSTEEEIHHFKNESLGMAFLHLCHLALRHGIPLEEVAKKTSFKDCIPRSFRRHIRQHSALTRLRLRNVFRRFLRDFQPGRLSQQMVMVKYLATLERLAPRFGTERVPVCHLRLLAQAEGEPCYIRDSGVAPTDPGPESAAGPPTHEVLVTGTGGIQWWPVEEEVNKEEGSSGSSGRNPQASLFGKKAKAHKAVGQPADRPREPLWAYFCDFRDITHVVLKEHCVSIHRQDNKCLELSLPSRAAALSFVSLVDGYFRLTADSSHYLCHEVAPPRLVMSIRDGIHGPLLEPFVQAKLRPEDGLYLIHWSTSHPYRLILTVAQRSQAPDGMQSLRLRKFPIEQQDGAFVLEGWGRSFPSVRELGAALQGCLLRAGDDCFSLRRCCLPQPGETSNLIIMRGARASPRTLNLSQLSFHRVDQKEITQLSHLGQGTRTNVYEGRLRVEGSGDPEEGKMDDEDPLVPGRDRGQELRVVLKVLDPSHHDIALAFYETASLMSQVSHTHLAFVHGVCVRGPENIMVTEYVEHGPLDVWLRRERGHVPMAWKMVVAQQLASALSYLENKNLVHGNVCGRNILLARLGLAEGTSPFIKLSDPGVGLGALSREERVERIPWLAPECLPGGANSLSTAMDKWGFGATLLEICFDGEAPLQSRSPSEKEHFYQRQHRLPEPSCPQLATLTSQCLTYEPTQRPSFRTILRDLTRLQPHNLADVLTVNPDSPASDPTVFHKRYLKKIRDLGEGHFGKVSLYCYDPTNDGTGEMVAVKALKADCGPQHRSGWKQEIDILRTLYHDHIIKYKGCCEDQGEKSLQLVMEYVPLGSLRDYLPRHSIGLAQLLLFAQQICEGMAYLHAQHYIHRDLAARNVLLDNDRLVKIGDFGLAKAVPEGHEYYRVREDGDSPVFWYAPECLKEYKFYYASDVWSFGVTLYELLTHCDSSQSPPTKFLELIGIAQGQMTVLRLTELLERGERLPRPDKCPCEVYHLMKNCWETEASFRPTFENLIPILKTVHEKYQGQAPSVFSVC
T1 sequence (O60674 849-1132 limits assumed, change not shown): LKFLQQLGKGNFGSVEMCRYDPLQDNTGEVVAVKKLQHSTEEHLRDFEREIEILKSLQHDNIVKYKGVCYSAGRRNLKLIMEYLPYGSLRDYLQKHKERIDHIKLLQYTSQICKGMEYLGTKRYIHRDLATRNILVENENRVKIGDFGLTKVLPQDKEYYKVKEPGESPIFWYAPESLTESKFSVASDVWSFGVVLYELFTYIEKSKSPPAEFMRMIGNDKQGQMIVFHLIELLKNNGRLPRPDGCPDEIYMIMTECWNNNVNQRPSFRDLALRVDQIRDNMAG

In the case of `[2H]C([2H])([2H])NC(=O)c1nnc(NC(=O)C2CC2)cc1Nc1nc(N)c(Cl)cc1[S@@](C)(=O)=NC` [Example 28], the GI50 in data set [1] was above 1000 nM. In data set [2], this molecule gave a Solubility of 22 µg/mL (≈ 48.3 µM). In addition, the “higher anti-inflammatory activity compared to the control BMS-986165” value in data set [3] is “about 6 fold”. Besides, the half-maximal inhibitory concentration (IC50) is 4 nM in data set [3], 0.6 nM in data set [4] and 0.6 nM in data set [5].

In the case of `[2H]C([2H])([2H])NC(=O)c1nnc(NC(=O)C2CC2)cc1Nc1nc(N)c(Cl)cc1[S@](C)(=N)=O` [Example 29, (R)-4-((6-amino-5-chloro-3-(S-methylsulfoximino)pyridin-2-yl)amino)-6-(cyclopropylcarboxamido)-N-(methyl-d3)pyridazine-3-carboxamide], in data set [1], the GI50 was above 1000 nM. Further, in data set [3], the “higher anti-inflammatory activity compared to the control BMS-986165” value is listed as “about 6 fold”. Besides, the values for the IC50 in data set [3], in data set [4] and in data set [5] were 3.7 nM, 1.1 nM and 1.1 nM, respectively.
